These results are taken from patent US20230015478A1, “GLP-1 RECEPTOR AGONISTS HAVING IMPROVED PHARMACOLOGICAL AND DRUG DELIVERY PROPERTIES” (priority 2021, published 2023).

Square brackets hold non-standard residues; d marks the D form. Peptide text beside a SMILES is read from it. Bip = N[C@@H](Cc1ccc(-c2ccccc2)cc1)C(=O)O; Phe(2-F) = N[C@@H](Cc1ccccc1F)C(=O)O; Aib = CC(C)(N)C(=O)O Where only a bound is given, the exact number is not on record here.

T1 sequence (P43220 24-463): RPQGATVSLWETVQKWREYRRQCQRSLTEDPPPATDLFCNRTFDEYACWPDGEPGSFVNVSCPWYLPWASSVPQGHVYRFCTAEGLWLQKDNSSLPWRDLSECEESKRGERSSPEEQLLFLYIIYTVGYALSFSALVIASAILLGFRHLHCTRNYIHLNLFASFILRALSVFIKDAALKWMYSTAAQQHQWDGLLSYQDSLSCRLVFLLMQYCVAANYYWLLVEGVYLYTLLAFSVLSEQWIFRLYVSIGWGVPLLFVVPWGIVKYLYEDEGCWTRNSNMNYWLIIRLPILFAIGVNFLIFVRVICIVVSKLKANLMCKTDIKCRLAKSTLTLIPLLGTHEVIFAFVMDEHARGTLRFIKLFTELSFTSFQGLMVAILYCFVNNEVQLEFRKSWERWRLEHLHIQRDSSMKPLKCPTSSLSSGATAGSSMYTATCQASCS

The first assay concerns the target T1, hGLP1 receptor (Homo sapiens, UniProt P43220).
T1 construct: expressed in transfected cells; host or cells: HEK (human embryonic kidney) cells co-expressing hGLP1 receptor and CRE-Luciferase
In words: cAMP HTRF agonist assay in HEK cells co-expressing hGLP1 receptor and CRE-Luciferase. Conditions: Table 1; cells marked (0% albumin); read-out: cAMP EC50, nM (0% albumin). The assay is classed as cell-based. How it is done:
Human embryonic kidney cells (HEK) co-expressing the hGLP1 receptor and CRE-Luciferase construct were used to determine agonist potency in this assay. The cells were thawed briefly at 37° C., transferred to a sterile tube and re-suspended in complete media at 37° C. Cells were centrifuged at 1000 rpm for 5 minutes and cells collected; cells were re-suspended in assay buffer consisting of DPBS (GIBCO) with 500 μM of the phosphodiesterase inhibitor IBMX. […] The optimal cell density was determined to be 1000 cells/well; cells were added to wells in 384-well plates containing appropriate pre-prepared dilutions of compounds (test peptides or reference compound exendin-4), sealed and incubated with CO2 for 30 min. Test peptide solutions were diluted from 10 mM stock solutions; for most peptides an initial run was performed in duplicate from a maximal concentration of 1.0 μM, with 11 concentrations tested for each peptide using serial 1:3 dilution from this maximal concentration. […] The agonist assay was a homogeneous time-resolved fluorescence (HTRF) assay (Cisbio).
Following incubation of the cells for 30 minutes with test or reference peptides, 5 μL of the cAMP acceptor cAMP-d2, prepared previously as a working solution from frozen stock (1:20 dilution), was added to each well of the assay plate, along with 5 μL of anti-cAMP antibody-cryptate working solution (diluted 1:20 from frozen stock). The wells were incubated for 1 hour at room temperature, and fluorescence was then read at 665 and 615 nm with an Envision reader with TRF laser. Data were saved and analyzed using Prism software (GraphPad). Concentration-response analysis was performed using 4-parameter logistic fits of the resulting data, and EC50 values obtained for each test and reference compound.
Background: Time-resolved FRET reads energy transfer from a long-lived donor to a nearby acceptor.
A word on the EC50: it is the concentration that produces a half-maximal response. For the compound `C[C@H](NC(=O)[C@@H](NC(=O)CNC(=O)[C@H](CCC(=O)O)NC(=O)C(C)(C)NC(=O)[C@@H](N)Cc1c[nH]cn1)[C@@H](C)O)C(=O)N[C@H](C(=O)N[C@@H](CO)C(=O)N[C@@H](CC(=O)O)C(=O)N[C@@H](Cc1ccc(-c2ccccc2)cc1)C(=O)N[C@@H](Cc1ccc(-c2ccccc2)cc1)C(N)=O)[C@@H](C)O` [3-19, H2N-His-Aib-Glu-Gly-Thr-Ala-Thr-Ser-Asp-Bip-Bip-C(O)NH2] (H-H[Aib]EGTATSD[Bip][Bip]-NH2), the EC50 is 2800 nM.

The assay is the same for the next values; noted with them: Table 2; cell marked (0% albumin); read-out: cAMP EC50, nM (0% albumin).
In the case of `C[C@H](NC(=O)[C@H](CCC(=O)O)NC(=O)C(C)(C)NC(=O)[C@@H](N)Cc1c[nH]cn1)C(=O)N[C@H](C(=O)N[C@@H](Cc1ccccc1F)C(=O)N[C@H](C(=O)N[C@@H](CO)C(=O)N[C@@H](CC(=O)O)C(=O)N[C@@H](Cc1ccc(-c2ccccc2)cc1)C(=O)N[C@@H](Cc1ccc(-c2ccccc2)cc1)C(N)=O)[C@@H](C)O)[C@@H](C)O` [3-23, H2N-His-Aib-Glu-Ala-Thr-Phe(2F)-Thr-Ser-Asp-Bip-Bip-C(O)NH2] (H-H[Aib]EAT[Phe(2-F)]TSD[Bip][Bip]-NH2), the EC50 amounted to 347 nM.

Staying with this assay, now noted: cAMP EC50, nM (0.1% albumin), Table 1; 0.1% albumin.
On to `C[C@@H](O)[C@H](NC(=O)CNC(=O)[C@H](CCC(=O)O)NC(=O)C(C)(C)NC(=O)[C@@H](N)Cc1c[nH]cn1)C(=O)N[C@@H](Cc1ccc(O)cc1)C(=O)N[C@H](C(=O)N[C@@H](CO)C(=O)N[C@@H](CC(=O)O)C(=O)N[C@@H](Cc1ccc(-c2ccccc2)cc1)C(=O)N[C@@H](Cc1ccc(-c2ccccc2)cc1)C(N)=O)[C@@H](C)O` [3-12, H2N-His-Aib-Glu-Gly-Thr-Tyr-Thr-Ser-Asp-Bip-Bip-C(O)NH2] (H-H[Aib]EGTYTSD[Bip][Bip]-NH2), for which the EC50 came out at 7.3 nM. For `C[C@@H](O)[C@H](NC(=O)CNC(=O)[C@H](CCC(=O)O)NC(=O)C(C)(C)NC(=O)[C@@H](N)Cc1c[nH]cn1)C(=O)N[C@H](Cc1ccccc1)C(=O)N[C@H](C(=O)N[C@@H](CO)C(=O)N[C@@H](CC(=O)O)C(=O)N[C@@H](Cc1ccc(-c2ccccc2)cc1)C(=O)N[C@@H](Cc1ccc(-c2ccccc2)cc1)C(N)=O)[C@@H](C)O` [3-13, H2N-His-Aib-Glu-Gly-Thr-D-Phe-Thr-Ser-Asp-Bip-Bip-C(O)NH2] (H-H[Aib]EGT[dF]TSD[Bip][Bip]-NH2), the EC50 was 57 nM. Still for that read-out and setting: in the case of `C[C@@H](O)[C@H](NC(=O)CNC(=O)[C@H](CCC(=O)O)NC(=O)C(C)(C)NC(=O)[C@@H](N)Cc1c[nH]cn1)C(=O)N[C@@H](Cc1c[nH]c2ccccc12)C(=O)N[C@H](C(=O)N[C@@H](CO)C(=O)N[C@@H](CC(=O)O)C(=O)N[C@@H](Cc1ccc(-c2ccccc2)cc1)C(=O)N[C@@H](Cc1ccc(-c2ccccc2)cc1)C(N)=O)[C@@H](C)O` [3-14, H2N-His-Aib-Glu-Gly-Thr-Trp-Thr-Ser-Asp-Bip-Bip-C(O)NH2] (H-H[Aib]EGTWTSD[Bip][Bip]-NH2) it was 67.6 nM; in that of `C[C@@H](O)[C@H](NC(=O)CNC(=O)[C@H](CCC(=O)O)NC(=O)C(C)(C)NC(=O)[C@@H](N)Cc1c[nH]cn1)C(=O)N[C@@H](Cc1ccc(-c2ccccc2)cc1)C(=O)N[C@H](C(=O)N[C@@H](CO)C(=O)N[C@@H](CC(=O)O)C(=O)N[C@@H](Cc1ccc(-c2ccccc2)cc1)C(=O)N[C@@H](Cc1ccc(-c2ccccc2)cc1)C(N)=O)[C@@H](C)O` [3-15, H2N-His-Aib-Glu-Gly-Thr-Bip-Thr-Ser-Asp-Bip-Bip-C(O)NH2] (H-H[Aib]EGT[Bip]TSD[Bip][Bip]-NH2), 26.2 nM; in that of `C[C@@H](O)[C@H](NC(=O)CNC(=O)[C@H](CCC(=O)O)NC(=O)C(C)(C)NC(=O)[C@@H](N)Cc1c[nH]cn1)C(=O)NC(C)(C)C(=O)N[C@H](C(=O)N[C@@H](CO)C(=O)N[C@@H](CC(=O)O)C(=O)N[C@@H](Cc1ccc(-c2ccccc2)cc1)C(=O)N[C@@H](Cc1ccc(-c2ccccc2)cc1)C(N)=O)[C@@H](C)O` [3-18, H2N-His-Aib-Glu-Gly-Thr-Aib-Thr-Ser-Asp-Bip-Bip-C(O)NH2] (H-H[Aib]EGT[Aib]TSD[Bip][Bip]-NH2), 152 nM.

The same assay, now with this note: cAMP EC50, nM (0.1% albumin), Table 2; 0.1% albumin.
`C[C@H](N)C(=O)NC(C)(C)C(=O)N[C@@H](CCC(=O)O)C(=O)NCC(=O)N[C@H](C(=O)N[C@@H](Cc1ccccc1F)C(=O)N[C@H](C(=O)N[C@@H](CO)C(=O)N[C@@H](CC(=O)O)C(=O)N[C@@H](Cc1ccc(-c2ccccc2)cc1)C(=O)N[C@@H](Cc1ccc(-c2ccccc2)cc1)C(N)=O)[C@@H](C)O)[C@@H](C)O` [3-20, H2N-Ala-Aib-Glu-Gly-Thr-Phe(2-F)-Thr-Ser-Asp-Bip-Bip-C(O)NH2] (H-A[Aib]EGT[Phe(2-F)]TSD[Bip][Bip]-NH2) returned an EC50 of 66 nM. For `C[C@H](NC(=O)[C@@H](N)Cc1c[nH]cn1)C(=O)N[C@@H](CCC(=O)O)C(=O)NCC(=O)N[C@H](C(=O)N[C@@H](Cc1ccccc1F)C(=O)N[C@H](C(=O)N[C@@H](CO)C(=O)N[C@@H](CC(=O)O)C(=O)N[C@@H](Cc1ccc(-c2ccccc2)cc1)C(=O)N[C@@H](Cc1ccc(-c2ccccc2)cc1)C(N)=O)[C@@H](C)O)[C@@H](C)O` [3-21, H2N-His-Ala-Glu-Gly-Thr-Phe(2-F)-Thr-Ser-Asp-Bip-Bip-C(O)NH2] (H-HAEGT[Phe(2-F)]TSD[Bip][Bip]-NH2), the concentration for a half-maximal effect (EC50) was found to be 0.29 nM.

Consider `C[C@H](NC(=O)C(C)(C)NC(=O)[C@@H](N)Cc1c[nH]cn1)C(=O)NCC(=O)N[C@H](C(=O)N[C@@H](Cc1ccccc1F)C(=O)N[C@H](C(=O)N[C@@H](CO)C(=O)N[C@@H](CC(=O)O)C(=O)N[C@@H](Cc1ccc(-c2ccccc2)cc1)C(=O)N[C@@H](Cc1ccc(-c2ccccc2)cc1)C(N)=O)[C@@H](C)O)[C@@H](C)O` [3-22, H2N-His-Aib-Ala-Gly-Thr-Phe(2-F)-Thr-Ser-Asp-Bip-Bip-C(O)NH2] (H-H[Aib]AGT[Phe(2-F)]TSD[Bip][Bip]-NH2), for which the midpoint of the response, the EC50, lay at 20.3 nM. Compound `C[C@H](NC(=O)CNC(=O)[C@H](CCC(=O)O)NC(=O)C(C)(C)NC(=O)[C@@H](N)Cc1c[nH]cn1)C(=O)N[C@@H](Cc1ccccc1F)C(=O)N[C@H](C(=O)N[C@@H](CO)C(=O)N[C@@H](CC(=O)O)C(=O)N[C@@H](Cc1ccc(-c2ccccc2)cc1)C(=O)N[C@@H](Cc1ccc(-c2ccccc2)cc1)C(N)=O)[C@@H](C)O` [3-24, H2N-His-Aib-Glu-Gly-Ala-Phe(2-F)-Thr-Ser-Asp-Bip-Bip-C(O)NH2] (H-H[Aib]EGA[Phe(2-F)]TSD[Bip][Bip]-NH2) showed a 50% effective concentration (EC50) of 28.1 nM. For `C[C@H](NC(=O)[C@H](Cc1ccccc1F)NC(=O)[C@@H](NC(=O)CNC(=O)[C@H](CCC(=O)O)NC(=O)C(C)(C)NC(=O)[C@@H](N)Cc1c[nH]cn1)[C@@H](C)O)C(=O)N[C@@H](CO)C(=O)N[C@@H](CC(=O)O)C(=O)N[C@@H](Cc1ccc(-c2ccccc2)cc1)C(=O)N[C@@H](Cc1ccc(-c2ccccc2)cc1)C(N)=O` [3-25, H2N-His-Aib-Glu-Gly-Thr-Phe(2-F)-Ala-Ser-Asp-Bip-Bip-C(O)NH2] (H-H[Aib]EGT[Phe(2-F)]ASD[Bip][Bip]-NH2), the EC50 was determined as 79.1 nM. As for `C[C@H](NC(=O)[C@@H](NC(=O)[C@H](Cc1ccccc1F)NC(=O)[C@@H](NC(=O)CNC(=O)[C@H](CCC(=O)O)NC(=O)C(C)(C)NC(=O)[C@@H](N)Cc1c[nH]cn1)[C@@H](C)O)[C@@H](C)O)C(=O)N[C@@H](CC(=O)O)C(=O)N[C@@H](Cc1ccc(-c2ccccc2)cc1)C(=O)N[C@@H](Cc1ccc(-c2ccccc2)cc1)C(N)=O` [3-26, H2N-His-Aib-Glu-Gly-Thr-Phe(2-F)-Thr-Ala-Asp-Bip-Bip-C(O)NH2] (H-H[Aib]EGT[Phe(2-F)]TAD[Bip][Bip]-NH2), the EC50 worked out at 18.9 nM. As to `C[C@H](NC(=O)[C@H](CO)NC(=O)[C@@H](NC(=O)[C@H](Cc1ccccc1F)NC(=O)[C@@H](NC(=O)CNC(=O)[C@H](CCC(=O)O)NC(=O)C(C)(C)NC(=O)[C@@H](N)Cc1c[nH]cn1)[C@@H](C)O)[C@@H](C)O)C(=O)N[C@@H](Cc1ccc(-c2ccccc2)cc1)C(=O)N[C@@H](Cc1ccc(-c2ccccc2)cc1)C(N)=O` [3-27, H2N-His-Aib-Glu-Gly-Thr-Phe(2-F)-Thr-Ser-Ala-Bip-Bip-C(O)NH2] (H-H[Aib]EGT[Phe(2-F)]TSA[Bip][Bip]-NH2), the midpoint of the response, the EC50, lay at 67 nM.

Take `C[C@H](NC(=O)[C@H](CC(=O)O)NC(=O)[C@H](CO)NC(=O)[C@@H](NC(=O)[C@H](Cc1ccccc1F)NC(=O)[C@@H](NC(=O)CNC(=O)[C@H](CCC(=O)O)NC(=O)C(C)(C)NC(=O)[C@@H](N)Cc1c[nH]cn1)[C@@H](C)O)[C@@H](C)O)C(=O)N[C@@H](Cc1ccc(-c2ccccc2)cc1)C(N)=O` [3-28, H2N-His-Aib-Glu-Gly-Thr-Phe(2-F)-Thr-Ser-Asp-Ala-Bip-C(O)NH2] (H-H[Aib]EGT[Phe(2-F)]TSDA[Bip]-NH2): the 50% effective concentration (EC50) was over 1000 nM. In turn, `C[C@H](NC(=O)[C@H](Cc1ccc(-c2ccccc2)cc1)NC(=O)[C@H](CC(=O)O)NC(=O)[C@H](CO)NC(=O)[C@@H](NC(=O)[C@H](Cc1ccccc1F)NC(=O)[C@@H](NC(=O)CNC(=O)[C@H](CCC(=O)O)NC(=O)C(C)(C)NC(=O)[C@@H](N)Cc1c[nH]cn1)[C@@H](C)O)[C@@H](C)O)C(N)=O` [3-29, H2N-His-Aib-Glu-Gly-Thr-Phe(2-F)-Thr-Ser-Asp-Bip-Ala-C(O)NH2] returned a 50% effective concentration (EC50) of over 1000 nM.
